We go through 4 compounds from ChEMBL document CHEMBL1201862, “PubChem BioAssay data set” (2004).

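Grown in 96-well plates, cells were treated for 48 hours with each compound at five concentrations. Insufficient inhibition: endpoint recorded as highest concentration tested. GI50 marks 50% less growth.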 Activity calls are given as the source filed them. Cut-off read from the data, not from the text of the source: active = GI50 up to about 1.1 µM and inactive = higher.

Some test systems named below: SR; LOX IMVI; 786-0; M14; A498; T47D; Malme-3M; NCI-H226; HCC 2998; BT-549; RPMI-8226; OVCAR-4; OVCAR-5; U-251; COLO 205; PC-3; Hs-578T; HL-60; SNB-75; NCI-H23.
Assay in all cases: NCI anticancer screen, dose series, 48 h

`COC1(CC[C@@H](C)COC2OC(CO)C(O)C(O)C2O)O[C@H]2C[C@H]3[C@@H]4CC=C5C[C@@H](OC6OC(CO)C(O)C(OC7OC(CO)C(O)C(O)C7O)C6OC6OC(C)C(O)C(O)C6O)CC[C@]5(C)[C@H]4CC[C@]3(C)[C@H]2[C@@H]1C` (stereo not given in full): the GI50 is 23.5 µM (inactive) with SR; 2.8 µM (inactive) in the assay on LOX IMVI; 2.75 µM (inactive) in the assay on 786-0; 2.37 µM (inactive) in the assay on M14; 12.9 µM (inactive) in the assay with A498; 4.67 µM (inactive) in the assay on T47D. Also, the GI50 with Malme-3M is 3.11 µM (inactive); in the assay on NCI-H226, 9.95 µM (inactive); with HCC 2998 it was 3.56 µM (inactive); in the assay with BT-549, 16.5 µM (inactive); in the assay with RPMI-8226, 32.2 µM (inactive); with OVCAR-4 it was 9.91 µM (inactive). In addition, the GI50 is 7.67 µM (inactive) in the assay on OVCAR-5; 1.89 µM (inactive) in the assay on U-251; 9.04 µM (inactive) in the assay on COLO 205; 6.82 µM (inactive) in the assay with PC-3; 8.51 µM (inactive) with Hs-578T; 6.19 µM (inactive) with HL-60. For the same compound, the results for the GI50 with SNB-75 and in the assay with NCI-H23 were 3.33 µM (inactive) and 14.5 µM (inactive), respectively.
`Cc1ccc(S(=O)(=O)SC(C)(C)C)cc1`: the GI50 in the assay with SR was 12.2 µM (inactive); with LOX IMVI, 21.9 µM (inactive); in the assay with 786-0 it was 16.9 µM (inactive); in the assay with M14, 31.6 µM (inactive); in the assay on A498 it was > 100 µM (inactive); in the assay on T47D, > 100 µM (inactive). Besides, the GI50 in the assay on Malme-3M was > 44.4 µM (inactive); with NCI-H226, > 86.7 µM (inactive); in the assay on HCC 2998, > 43.5 µM (inactive); in the assay on BT-549 it was 22.4 µM (inactive); in the assay on RPMI-8226, 15.3 µM (inactive); in the assay on OVCAR-4, 22.2 µM (inactive). Also, the GI50 in the assay on OVCAR-5 was > 48.4 µM (inactive); in the assay with U-251, > 100 µM (inactive); in the assay on COLO 205 it was 47.6 µM (inactive); in the assay on PC-3, > 10 µM (inactive); in the assay with Hs-578T, 34.2 µM (inactive); with HL-60 it was 18 µM (inactive). Moreover, the GI50 is > 63.5 µM (inactive) with SNB-75 and 11.2 µM (inactive) in the assay on NCI-H23.
For `CC1=Nc2c(O)nc(S)nc2NC(c2c(Cl)cccc2Cl)C1` (stereo not given), the GI50 in the assay with SR was 0.372 µM (active); in the assay with LOX IMVI it was 0.766 µM (active); in the assay with 786-0, 0.902 µM (active); in the assay with M14, 2.32 µM (inactive); in the assay on A498, 1.67 µM (inactive); in the assay on T47D, 1.48 µM (inactive). For the same compound, the GI50 is 6.11 µM (inactive) in the assay with Malme-3M; 5.21 µM (inactive) in the assay on NCI-H226; 10.9 µM (inactive) in the assay on HCC 2998; 1.24 µM (inactive) in the assay on BT-549; 0.583 µM (active) with RPMI-8226; 2.74 µM (inactive) in the assay on OVCAR-4. Further, the GI50 with OVCAR-5 is 5.83 µM (inactive); in the assay on U-251, 0.993 µM (active); with COLO 205, 1.87 µM (inactive); in the assay with PC-3, 1.17 µM (inactive); in the assay with Hs-578T, 0.589 µM (active); in the assay with HL-60, 0.552 µM (active). Moreover, the GI50 in the assay on SNB-75 was 3.34 µM (inactive); with NCI-H23, 2.65 µM (inactive).
`NC(=S)N/N=C/c1ncccc1N` [TRIAPINE]: the GI50 with SR was 0.403 µM (active); in the assay with LOX IMVI, 0.679 µM (active); in the assay with 786-0, 0.314 µM (active); with M14, 0.583 µM (active); with A498 it was 0.615 µM (active); in the assay with T47D it was 4.39 µM (inactive). Besides, the GI50 in the assay on Malme-3M is 1.87 µM (inactive); in the assay on NCI-H226 it was 2.75 µM (inactive); in the assay on HCC 2998, 1.62 µM (inactive); in the assay on BT-549 it was 2.37 µM (inactive); in the assay with RPMI-8226, 0.792 µM (active); with OVCAR-4 it was 7.48 µM (inactive). Moreover, the GI50 was 5.08 µM (inactive) with OVCAR-5; 1.04 µM (active) in the assay on U-251; 2.23 µM (inactive) in the assay with COLO 205; 1.57 µM (inactive) with PC-3; > 10 µM (inactive) with Hs-578T; 1.03 µM (active) with HL-60. Besides, the GI50 in the assay with SNB-75 was 0.773 µM (active); in the assay with NCI-H23, 0.332 µM (active).
